Values of other authors in patent publication US20100260755A1, “IBUDILAST AND IMMUNOMODULATORS COMBINATION” (MediciNova, Inc., priority 2009, published 2010).

What was measured:
[1] = test system: experimental autoimmune encephalomyelitis; settings: in vivo
[2] = test system: multiple sclerosis patients; settings: daily injections, exacerbating-remitting MS
[3] = test system: glial cells
[4] = test system: T-cells isolated from peripheral blood of MS patients; settings: in vitro

## Glatiramer acetate
[1]
  effect on experimental autoimmune encephalomyelitis (EAE): suppress
[2]
  exacerbations versus control patients: fewer exacerbations
  increases in disability status versus control patients: smaller increases
[3]
  production of inflammatory mediators TNF-α, nitric oxide, superoxide by glial cells: effectively suppress
[4]
  IL-5 and IL-13 cytokine secretion: induces
